The data set in a line: molar enthalpy of transition or fusion. Particulars: 352 K; Crystal; DSC.

Numbers after ± are expanded uncertainties.

For `OCCCCCCCCCCCCO` [1,12-dihydroxydodecane], the “molar enthalpy of transition or fusion” value was determined as 12.2 ± 0.454 kcal/mol.

For the origin of these results see the NIST ThermoML archive (doi:10.1021/je060333x).
